# Laboratory results as given in US6174881A, “Hydroxymethylimidazodiazepines and their esters” (Hoffman-La Roche Inc., priority 1995, dated 2001).
# Key:
# [1] = target: central benzodiazepine receptors; experiment: inhibition of the binding of tritiated flumazenil to the specific benzodiazepine receptors in the cortex of rats; conditions: 50% inhibition of specific binding of tritiated flumazenil, rat cortex; read-out: Affinity to benzodiazepine receptors IC50
# Experimental: The affinity of compounds of general formula I to the central benzodiazepine receptors was established in vitro according to the methods described in Nature 294, 763-765 (1981) and J. Neurochemistry 37, 714-722 (1981). According to these methods the inhibition of the binding of tritiated flumazenil to the specific benzodiazepine receptors in the cortex of rats by the respective test substances is determined. The IC50 ("50% inhibiting concentration") denotes that concentration of the respective test substance which brings about a 50 percent inhibition of the specific binding of tritiated flumazenil to the specific benzodiazepine receptors in the cortex of rats.
# mice = experiment: rotating rod test in mice (sedative/muscle relaxant properties), i.v.; type: in vivo, mouse; conditions: for ED50: Mus musculus, iv
# Experimental: The sedative/muscle relaxant properties of the compounds of formula II in accordance with the invention can be determined, for example, in the rotating rod test. Mice weighing 19-21 g are used for this test. They have free access to feed and drinking water up to 1 hour prior to the beginning of the test. They are brought into the test laboratory at least 30 minutes prior to the test. In the rotating rod test the animals are placed on a horizontally arranged, smooth metal rod having a diameter of 3 cm., which is rotated at 2 revolutions per minute. Initially, the animals are given the opportunity of familiarizing themselves with the test situation for 30 seconds. Subsequently, those animals which succeed in remaining on the rod for at least 1 minute are selected. The test preparations are then administered intraveneously to these animals in different dosages. At various points in time it is then determined whether the animals are able to remain for a minimum period on the rod (minimum period: 10 seconds, 1 minute from 5 minutes after administration). That dosage at which 50% of the animals are capable of remaining on the rod is determined (ED50).
# [2] = 15 s, minimum time 10 sec, 15 sec after administration
# [3] = 0.5 min, minimum time 10 sec, 30 sec after administration
# [4] = 1 min, minimum time 10 sec, 60 sec after administration
# [5] = 2 min, minimum time 10 sec, 2 min after administration
# [6] = 5 min, minimum time 60 sec, 5 min after administration
# [7] = 0.25 h, minimum time 60 sec, 15 min after administration
# [8] = 0.5 h, minimum time 60 sec, 30 min after administration
# [9] = 1 h, minimum time 60 sec, 60 min after administration
molecule,measurement,setting,value
"2-Chloro-4-(2-fluorophenyl)-8,9-dihydro-6H-imidazo[1,2-a]thieno[3,2-f][1,4]diazepine-8-methanol",IC50,[1],2.6 nM
same,"Rotating rod test, ED50","mice; minimum time 10 sec, 15 sec after administration, 0.25 min",0.5 mg/kg
same,"Rotating rod test, ED50","mice; minimum time 10 sec, 30 sec after administration, 0.5 min","0,7 mg/kg"
same,"Rotating rod test, ED50","mice; minimum time 10 sec, 60 sec after administration, 1 min",0.6 mg/kg
same,"Rotating rod test, ED50","mice; minimum time 10 sec, 2 min after administration",1.2 mg/kg
same,"Rotating rod test, ED50","mice; minimum time 60 sec, 5 min after administration",2.3 mg/kg
same,"Rotating rod test, ED50","mice; minimum time 60 sec, 15 min after administration",5.3 mg/kg
same,"Rotating rod test, ED50","mice; minimum time 60 sec, 30 min after administration",≥ 10 mg/kg
same,"Rotating rod test, ED50","mice; minimum time 60 sec, 60 min after administration",> 10 mg/kg
CC(=O)OCc1cn2c(n1)CN=C(c1ccccc1F)c1cc(Cl)sc1-2 [B],IC50,[1],6 nM
same,ED50,mice; [2],0.6 mg/kg
same,ED50,mice; [3],0.7 mg/kg
same,ED50,mice; [4],1.2 mg/kg
same,ED50,mice; [5],1 mg/kg
same,ED50,mice; [6],≥ 10 mg/kg
same,ED50,mice; [7],≥ 10 mg/kg
same,ED50,mice; [8],≥ 10 mg/kg
same,ED50,mice; [9],> 10 mg/kg
"OCc1cn2c(n1)CN=C(c1ccccc1F)c1cc(Cl)ccc1-2 [C, 8-Chloro-6-(2-fluorophenyl)-4H-imidazo[1,2-a]benzodiazepine-2-methanol]",IC50,[1],1.7 nM
same,ED50,mice; [2],0.1 mg/kg
same,ED50,mice; [3],0.3 mg/kg
same,ED50,mice; [4],0.3 mg/kg
same,ED50,mice; [5],≥ 10 mg/kg
same,ED50,mice; [6],0.8 mg/kg
same,ED50,mice; [7],0.4 mg/kg
same,ED50,mice; [8],1.1 mg/kg
same,ED50,mice; [9],≥ 10 mg/kg
"C=CCNCc1c(CO)nc2n1-c1ccc(Cl)cc1C(c1ccccc1F)=NC2 [D, 1-Allylaminomethyl-8-chloro-6-(2-fluorophenyl)-4H-imidazo[1,2-a][1,4]benzodiazepine-2-methanol]",IC50,[1],5.6 nM
same,ED50,mice; [2],2.5 mg/kg
same,ED50,mice; [3],3 mg/kg
same,ED50,mice; [4],3.2 mg/kg
same,ED50,mice; [5],3.2 mg/kg
same,ED50,mice; [6],2.1 mg/kg
same,ED50,mice; [7],1.8 mg/kg
same,ED50,mice; [8],≥ 10 mg/kg
same,ED50,mice; [9],> 10 mg/kg
"OCc1cn2c(n1)CN=C(c1ccccc1Cl)c1cc(Cl)ccc1-2 [E, 8-Chloro-6-(2-chlorophenyl)-4H-imidazo[1,2-a][1,4]benzodiazepine-2 methanol]",IC50,[1],1.2 nM
same,ED50,mice; [2],≤ 0.32 mg/kg
same,ED50,mice; [3],0.4 mg/kg
same,ED50,mice; [4],0.5 mg/kg
same,ED50,mice; [5],3.2 mg/kg
same,ED50,mice; [6],0.9 mg/kg
same,ED50,mice; [7],0.5 mg/kg
same,ED50,mice; [8],≥ 3.2 mg/kg
same,ED50,mice; [9],≥ 3.2 mg/kg
"OCc1cn2c(n1)CN=C(c1ccccc1)c1cc(C(F)(F)F)ccc1-2 [F, 8-Trifluoromethyl-6-phenyl-4H-imidazo[1,2-a][1,4]benzodiazepine-2 methanol]",IC50,[1],12 nM
same,ED50,mice; [2],1 mg/kg
same,ED50,mice; [3],1.1 mg/kg
same,ED50,mice; [4],1.1 mg/kg
same,ED50,mice; [5],> 3.2 mg/kg
same,ED50,mice; [6],1 mg/kg
same,ED50,mice; [7],0.9 mg/kg
same,ED50,mice; [8],1.1 mg/kg
same,ED50,mice; [9],1.8 mg/kg
"O=[N+]([O-])c1ccc2c(c1)C(c1ccccc1F)=NCc1nc(CO)cn1-2 [G, 6-(2-Fluorophenyl)-8-nitro-4H-imidazo[1,2-a][1,4]benzodiazepine-2 methanol]",IC50,[1],2.3 nM
same,ED50,mice; [2],0.2 mg/kg
same,ED50,mice; [3],0.2 mg/kg
same,ED50,mice; [4],0.3 mg/kg
same,ED50,mice; [5],0.3 mg/kg
same,ED50,mice; [6],0.1 mg/kg
same,ED50,mice; [7],0.2 mg/kg
same,ED50,mice; [8],0.2 mg/kg
same,ED50,mice; [9],≥ 1 mg/kg
"OCc1cn2c(n1)CN=C(c1ccccc1F)c1cc(I)ccc1-2 [H, 6-(2-Fluorophenyl)-8-iodo-4H-imidazo[1,2-a][1,4]benzodiazepine-2 methanol]",IC50,[1],2.07 nM
same,ED50,mice; [2],0.1 mg/kg
same,ED50,mice; [3],0.06 mg/kg
same,ED50,mice; [4],0.09 mg/kg
same,ED50,mice; [5],0.1 mg/kg
same,ED50,mice; [6],0.1 mg/kg
same,ED50,mice; [7],0.1 mg/kg
same,ED50,mice; [8],≥ 1 mg/kg
same,ED50,mice; [9],> 1 mg/kg
"OCc1cn2c(n1)CN=C(c1ccccn1)c1cc(Br)ccc1-2 [I, 8-Bromo-6-(2-pyridyl)-4H-imidazo[1,2-a][1,4]benzodiazepine-2 methanol]",IC50,[1],40 nM
same,ED50,mice; [2],1.5 mg/kg
same,ED50,mice; [3],2 mg/kg
same,ED50,mice; [4],3 mg/kg
same,ED50,mice; [5],> 10 mg/kg
same,ED50,mice; [6],1.4 mg/kg
same,ED50,mice; [7],1.8 mg/kg
same,ED50,mice; [8],3 mg/kg
same,ED50,mice; [9],≥ 10 mg/kg
